Common to all, as to assay: Cell proliferation assay (CellTiter-Glo, 72 hours)
A general note: ATP-based viability assays read luminescence as a measure of living cells.

Experiment [1] addresses T1, BaF3 EML4-ALK (Homo sapiens, UniProt Q9UM73).
T1 construct: The EML4-ALK gene (variant 1) was synthesized at GenScript and cloned into pCDH-CMV-MCS-EF1-Puro plasmid (System Biosciences, Inc); fused on or other part: Q9HC35 (Echinoderm microtubule-associated protein-like 4)
In kind it is cell-based. To be noted: anti-cell proliferation. How it is done:
The EML4-ALK gene (variant 1) was synthesized at GenScript and cloned into pCDH-CMV-MCS-EF1-Puro plasmid (System Biosciences, Inc). Ba/F3-EML4-ALK wild type were generated by transducing Ba/F3 cells with lentivirus containing EML4-ALK wide type. Stable cell lines were selected by puromycin treatment, followed by IL-3 withdrawal. Briefly, 5×10^6 Ba/F3 cells were transduced with lentivirus supernatant in the presence of 8 μg/mL protamine sulfate. The transduced cells were subsequently selected with 1 μg/mL puromycin in the presence of IL3-containing medium RPMI1640, plus 10% FBS. After 10-12 days of selection, the surviving cells were further selected for IL3 independent growth.
(§1) Two thousand cells per well were seeded in 384 well white plate for 24 hrs, and then treated with compounds for 72 hours (37° C., 5% CO2). Cell proliferation was measured using CellTiter-Glo luciferase-based ATP detection assay (Promega) following the manufactures's protocol. IC50 determinations were performed using GraphPad Prism software (GraphPad, Inc., San Diego, Calif.).

For experiment [2], the target named is T2, BaF3 KIF5B-RET_G810R (Homo sapiens, UniProt P07949, G810R, cells depend on it).
T2 construct: fused on or other part: P33176 (Kinesin-1 heavy chain)
T2 sequence (P07949 whole entry G810R, the tested form may be a part): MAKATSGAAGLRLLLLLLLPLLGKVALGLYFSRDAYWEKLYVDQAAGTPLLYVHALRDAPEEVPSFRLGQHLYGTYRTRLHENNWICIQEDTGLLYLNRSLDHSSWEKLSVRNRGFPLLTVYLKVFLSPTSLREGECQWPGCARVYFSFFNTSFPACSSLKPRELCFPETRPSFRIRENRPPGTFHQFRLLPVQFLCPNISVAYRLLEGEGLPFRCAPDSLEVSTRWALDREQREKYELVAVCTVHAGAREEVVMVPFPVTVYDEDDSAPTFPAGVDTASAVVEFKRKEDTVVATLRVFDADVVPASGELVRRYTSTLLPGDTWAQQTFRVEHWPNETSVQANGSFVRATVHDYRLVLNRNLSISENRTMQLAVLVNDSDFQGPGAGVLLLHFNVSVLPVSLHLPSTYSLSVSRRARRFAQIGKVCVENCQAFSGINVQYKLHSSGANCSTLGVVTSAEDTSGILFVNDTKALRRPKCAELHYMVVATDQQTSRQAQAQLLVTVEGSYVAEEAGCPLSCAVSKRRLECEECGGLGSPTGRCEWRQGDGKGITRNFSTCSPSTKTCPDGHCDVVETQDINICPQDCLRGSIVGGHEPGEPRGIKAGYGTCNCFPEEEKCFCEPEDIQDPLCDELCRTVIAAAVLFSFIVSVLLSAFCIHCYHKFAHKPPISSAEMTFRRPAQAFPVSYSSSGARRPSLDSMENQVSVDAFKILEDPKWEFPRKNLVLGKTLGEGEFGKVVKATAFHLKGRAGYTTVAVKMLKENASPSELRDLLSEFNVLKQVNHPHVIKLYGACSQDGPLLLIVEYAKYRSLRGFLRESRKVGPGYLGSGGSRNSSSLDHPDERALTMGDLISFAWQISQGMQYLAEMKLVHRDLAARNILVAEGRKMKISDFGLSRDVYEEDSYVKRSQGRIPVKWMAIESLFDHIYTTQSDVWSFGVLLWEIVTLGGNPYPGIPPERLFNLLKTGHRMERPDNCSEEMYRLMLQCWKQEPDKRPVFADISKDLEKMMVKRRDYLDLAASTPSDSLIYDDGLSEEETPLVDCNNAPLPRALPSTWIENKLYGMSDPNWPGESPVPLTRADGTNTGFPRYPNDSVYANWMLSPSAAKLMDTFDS
In kind it is cell-based. To be noted: anti-cell proliferation, read-out: BaF3 KIF5B-RET_G810R IC50.
Excerpt: [The source words this procedure for another variant and reports this variant under the same test.] (§2) The KIF5B-RET gene was synthesized at GenScript and cloned into pCDH-CMV-MCS-EF1-Puro plasmid (System Biosciences, Inc). KIF5B-RET point mutation V804M was generated at GenScript by PCR and confirmed by sequencing. Ba/F3-KIF5B-RET wild type and mutant were generated by transducing Ba/F3 cells with lentivirus containing KIF5B-RET wide type or mutant. Stable cell lines were selected by puromycin treatment, followed by IL-3 withdrawal. Briefly, 5×10^6 Ba/F3 cells were transduced with lentivirus supernatant in the presence of 8 μg/mL protamine sulfate. The transduced cells were subsequently selected with 1 µg/mL puromycin in the presence of IL3-containing medium RPMI1640, plus 10% FBS. After 10-12 days of selection, the surviving cells were further selected for IL3 independent growth.
as §1

Experiment [3] addresses T3, BaF3 KIF5B-RET_V804M (Homo sapiens, UniProt P07949, V804M, cells depend on it).
T3 construct: fused on or other part: P33176 (Kinesin-1 heavy chain)
In kind it is cell-based. To be noted: anti-cell proliferation, read-out: BaF3 KIF5B-RET_V804M IC50.
Excerpt: as §2, §1

For experiment [4], the target named is T4, BaF3 KIF5B-RET (Homo sapiens, UniProt P07949).
T4 construct: fused on or other part: P33176 (Kinesin-1 heavy chain)
T4 sequence (P07949 whole entry, change not shown, the tested form may be a part): as the sequence (P07949 whole entry G810R, the tested form may be a part) above, with R810G counted along it
In kind it is cell-based. The conditions noted are these: anti-cell proliferation, read-out: BaF3 KIF5B-RET IC50.
Excerpt: as §2, §1

Experiment [5] deals with KG-1. In kind it is cell-based, human. The conditions noted are these: Homo sapiens, KG-1, anti-cell proliferation. The method, then: (§3) Human medulla thyroid carcinoma cell line TT (containing RET […] mutation) and acute myelogenous cell line KG-1 were purchased from ATCC. Human colon cancer cell line KMI2 (containing TPM3-TRKA) was obtained from NCI.
as §1

Experiment [6] relates to KM12 cell (TPM3-TRKA). In kind it is cell-based, human. The conditions noted are these: Homo sapiens, KM12, anti-cell proliferation. How it is done:
as §3, §1

The structures appear in SMILES notation. Where only a bound is given, the exact number is not on record here.

T3 sequence (P07949 whole entry V804M, the tested form may be a part): as the sequence (P07949 whole entry G810R, the tested form may be a part) above, with V804M, R810G counted along it
T1 sequence (Q9UM73 whole entry, change not shown, the tested form may be a part): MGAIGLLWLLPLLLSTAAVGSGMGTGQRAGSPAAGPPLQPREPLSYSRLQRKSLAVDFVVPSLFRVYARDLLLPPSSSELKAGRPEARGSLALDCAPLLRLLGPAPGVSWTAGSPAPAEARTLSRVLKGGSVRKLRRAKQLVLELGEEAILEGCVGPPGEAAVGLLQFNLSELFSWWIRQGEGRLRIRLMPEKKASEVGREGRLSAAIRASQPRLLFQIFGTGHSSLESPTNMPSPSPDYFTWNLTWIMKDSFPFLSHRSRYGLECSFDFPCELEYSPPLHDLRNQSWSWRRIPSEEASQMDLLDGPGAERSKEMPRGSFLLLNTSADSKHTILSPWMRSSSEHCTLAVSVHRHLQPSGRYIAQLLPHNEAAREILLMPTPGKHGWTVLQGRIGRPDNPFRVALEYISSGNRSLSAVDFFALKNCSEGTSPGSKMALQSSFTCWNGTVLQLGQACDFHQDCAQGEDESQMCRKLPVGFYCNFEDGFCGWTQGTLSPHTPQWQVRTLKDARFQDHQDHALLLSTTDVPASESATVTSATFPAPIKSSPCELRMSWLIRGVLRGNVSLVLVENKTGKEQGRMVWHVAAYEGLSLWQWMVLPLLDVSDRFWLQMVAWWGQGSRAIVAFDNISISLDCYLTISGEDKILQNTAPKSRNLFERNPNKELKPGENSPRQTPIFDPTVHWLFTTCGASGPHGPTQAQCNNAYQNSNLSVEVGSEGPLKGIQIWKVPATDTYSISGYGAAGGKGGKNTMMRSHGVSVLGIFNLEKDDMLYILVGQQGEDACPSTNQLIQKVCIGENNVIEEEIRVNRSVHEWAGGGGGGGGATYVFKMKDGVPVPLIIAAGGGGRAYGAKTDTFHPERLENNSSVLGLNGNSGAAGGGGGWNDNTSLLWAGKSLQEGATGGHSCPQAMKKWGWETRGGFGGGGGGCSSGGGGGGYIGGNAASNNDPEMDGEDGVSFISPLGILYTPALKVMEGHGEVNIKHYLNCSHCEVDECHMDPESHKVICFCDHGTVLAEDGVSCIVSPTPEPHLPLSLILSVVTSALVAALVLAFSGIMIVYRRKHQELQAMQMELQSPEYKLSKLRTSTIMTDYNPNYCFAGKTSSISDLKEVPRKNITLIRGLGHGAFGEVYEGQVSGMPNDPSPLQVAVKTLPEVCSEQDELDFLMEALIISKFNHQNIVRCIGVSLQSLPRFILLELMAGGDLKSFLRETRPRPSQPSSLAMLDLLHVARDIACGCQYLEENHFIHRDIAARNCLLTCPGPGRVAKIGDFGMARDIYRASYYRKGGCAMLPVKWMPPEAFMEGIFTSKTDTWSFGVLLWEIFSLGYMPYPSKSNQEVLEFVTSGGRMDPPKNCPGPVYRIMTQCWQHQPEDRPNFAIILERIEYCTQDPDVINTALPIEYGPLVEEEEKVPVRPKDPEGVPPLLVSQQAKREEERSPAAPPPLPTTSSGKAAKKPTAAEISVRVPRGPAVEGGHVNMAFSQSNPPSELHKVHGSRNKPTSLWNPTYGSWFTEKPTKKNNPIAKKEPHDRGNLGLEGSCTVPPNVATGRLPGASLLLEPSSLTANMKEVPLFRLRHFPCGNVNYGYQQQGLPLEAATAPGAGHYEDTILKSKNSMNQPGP

`C[C@@H]1COc2ncc(F)cc2CN2c3nc4c(cnn4cc3O[C@H]3CCC[C@H]32)C(=O)N1` [Compound 6, (3aR,12R,20aS)-7-fluoro-12-methyl-2,3,3a,12,13,20a-hexahydro-1H,5H-17-19-(metheno)cyclopenta[5,6][1,4] oxazino[3,4-i]pyrazolo[4,3-f]pyrido[3,2-l][1,4,8,10]oxatriazacyclotridecin-14(11H)-one]: the GI50 in experiment [1] turned out to be 146 nM; in experiment [2], 3 nM; in experiment [3], 573 nM; in experiment [4] it was 0.2 nM. Further, the IC50 – broadly, the concentration that gives 50% inhibition – in experiment [5] stood at 1 nM; in experiment [6], 0.2 nM.
`C[C@@H]1COc2c(F)cc(F)cc2CN2c3nc4c(cnn4cc3O[C@H]3CCC[C@H]32)C(=O)N1` [Compound 7, (3aR,12R,20aS)-7,9-difluoro-12-methyl-2,3,3a,12,13,20a-hexahydro-1H,5H-17-19-(metheno)cyclopenta[5,6][1,4] oxazino[3,4-i]pyrazolo[4,3-f][1,4,8,10]benzoxatriazacyclotridecin-14(11H)-one]: the GI50 in experiment [1] turned out to be 675 nM; in experiment [2], 99.2 nM; in experiment [3], 1840 nM; in experiment [4] it was 0.2 nM. In addition, the values for the IC50 in experiment [5] and in experiment [6] were 344 nM and 37 nM, respectively.
On to `C[C@H]1CNC(=O)c2cnn3cc4c(nc23)N(Cc2cc(F)cnc2O1)[C@@H]1CCCC[C@@H]1O4` [Compound 12, (4aR,12S,21aS)-8-fluoro-12-methyl-1,2,3,4,4a,13,14,21a-octahydro-6H-18, 20-(metheno)pyrazolo[4′,3′:6,7]pyrido [3′,2′:12,13][1,4,8, 10]oxatriazacyclotridecino[9,10-c][1,4]benzoxazin-15(12H)-one], for which the GI50 in experiment [1] came to 2710 nM; in experiment [2], 1010 nM; in experiment [3] it was 4620 nM; in experiment [4], 101 nM. The IC50 worked out at 160 nM in experiment [5] and 13.8 nM in experiment [6].
For the compound `C[C@@H]1COc2ncc(F)cc2CN2c3nc4c(cnn4cc3O[C@H]3CCCC[C@H]32)C(=O)N1` [Compound 13, (4aR,13S,21aS)-8-fluoro-13-methyl-1,2,3,4,4a,13,14,21a-octahydro-6H-18, 20-(metheno)pyrazolo[4′,3′:6,7]pyrido [3′,2′:12,13][1,4,8, 10]oxatriazacyclotridecino[9,10-c][1,4]benzoxazin-15(12H)-one], the GI50 in experiment [1] was 5000 nM; in experiment [2], 1120 nM; in experiment [3], over 10000 nM; in experiment [4], 342 nM. Besides, the IC50 in experiment [5] came to 452 nM; in experiment [6], 28.4 nM.
Take `C[C@H]1CCNC(=O)c2cnn3cc4c(nc23)N(Cc2cc(F)cnc2O1)[C@@H]1CCC[C@@H]1O4` [Compound 15, (3aR,11S,21aS)-7-fluoro-11-methyl-2,3,3a,12,13,14,21a-octahydro-1H,5H, 15H-18,20-(metheno)cyclopenta[5,6] [1,4]oxazino[4,3-e]pyrazolo[3,4-h]pyrido [2,3-b][1,5,7,11]oxatriazacyclotetradecin-15-one]: the GI50 in experiment [1] is 364 nM; in experiment [2], 8.7 nM; in experiment [3], 1240 nM; in experiment [4], 1.1 nM. Moreover, the half-inhibitory concentration (IC50) in experiment [5] is 5.2 nM; in experiment [6], 5.1 nM.
As for `C[C@@H]1CCOc2ncc(F)cc2CN2c3nc4c(cnn4cc3O[C@H]3CCC[C@H]32)C(=O)N1` [Compound 16, (3aR,13R,21aS)-7-fluoro-13-methyl-2,3,3a,11,12,13,14,21a-octahydro-1H,5H, 15H-18,20-(metheno)cyclopenta[5,6] [1,4]oxazino[4,3-e]pyrazolo[3,4-h]pyrido [2,3-b][1,5,7,11]oxatriazacyclotetradecin-15-one], the GI50 was found to be 340 nM in experiment [1], 41.2 nM in experiment [2], 5000 nM in experiment [3] and 16.6 nM in experiment [4]. For the same compound, the IC50 was 47.4 nM in experiment [5] and 45.5 nM in experiment [6].
Take `C[C@H]1CNC(=O)c2cnn3cc4c(nc23)N(Cc2cc(F)cnc2OC1)[C@@H]1CCC[C@@H]1O4` [Compound 17, (3aR,12S,21aS)-7-fluoro-12-methyl-2,3,3a,11,12,13,14,21a-octahydro-1H,5H, 15H-18,20-(metheno)cyclopenta[5,6] [1,4]oxazino[4,3-e]pyrazolo[3,4-h]pyrido [2,3-b][1,5,7,11]oxatriazacyclotetradecin-15-one]: the GI50 in experiment [1] stood at 616 nM; in experiment [2], 10.7 nM; in experiment [3], 2730 nM; in experiment [4], 1.8 nM. Also, the IC50 came to 5 nM in experiment [5] and 4 nM in experiment [6].
Take `O=C1NC2(CC2)COc2ncc(F)cc2CN2c3nc4c1cnn4cc3O[C@H]1CCC[C@H]12` [Compound 18, (3a′R,20a′S)-7′-fluoro-1′H,2′H,3′H,3a′H, 5′H,11′H,13′H,14′H,20a′H-spiro[cyclopropane-1,12′-[10,20]dioxa[4,9,13,16,17,18][hexaaza [17,19](metheno)cyclopenta[5,6][1,4]oxazino[3,4-i]pyrazolo[4,3-f]pyrido [3,2-l][1,4,8,10]oxatriazacyclotridecin]-14′-one]: the GI50 in experiment [1] came to 77.2 nM; in experiment [2], 24.4 nM; in experiment [3] it was 1530 nM; in experiment [4], 7.1 nM. Besides, the 50% inhibitory concentration (IC50) in experiment [5] is 16.9 nM; in experiment [6], 11.3 nM.
On to `O=C1NCCCOc2ncc(F)cc2CN2c3nc4c1cnn4cc3O[C@H]1CCC[C@H]12` [Compound 19, (3aR,21aS)-7-fluoro-2,3,3a,11,12,13,14,21a-octahydro-1H,5H,15H-18,20-(metheno)cyclopenta[5,6][1,4]oxazino[4,3-e]pyrazolo[3,4-h]pyrido[2,3-b][1,5,7,11]oxatriazacyclotetradecin-15-one], for which the GI50 in experiment [1] stood at 895 nM; in experiment [2], 78 nM; in experiment [3], 3070 nM; in experiment [4], 5.2 nM. For the same compound, the concentration for half-maximal inhibition (IC50) in experiment [5] came out at 73.1 nM; in experiment [6], 7.8 nM.
Turning to `O=C1NCC2(CC2)COc2ncc(F)cc2CN2c3nc4c1cnn4cc3O[C@H]1CCC[C@H]12` [Compound 20, (3a′R,21a′S)-7′-fluoro-1′H,2′H,3′H,3a′H, 5′H,11′H,13′H,14′H,15′H,21a′H-spiro[cyclopropane-1,12′-[10,21]dioxa[4,9,14,17,18,19][hexaaza [18,20](metheno)cyclopenta[5,6][1,4]oxazino[4,3-e]pyrazolo[3,4-h]pyrido [3,2-b][1,5,7,11]oxatriazacyclotetradecin]-15′-one], the GI50 in experiment [1] amounted to 1400 nM; in experiment [2], 7.8 nM; in experiment [3], 1860 nM; in experiment [4], 1.1 nM. Moreover, the IC50 in experiment [5] came out at 2.4 nM; in experiment [6], 0.5 nM.
For `CC1(C)COc2ncc(F)cc2CN2c3nc4c(cnn4cc3O[C@H]3CCC[C@H]32)C(=O)N1` [Compound 21, (3aR,20aS)-7-fluoro-12,12-dimethyl-2,3,3a,12,13,20a-hexahydro-1H,5H-17,19-(metheno)cyclopenta[5,6] [1,4]oxazino[3,4-i]pyrazolo[4,3-f]pyrido [3,2-l][1,4,8,10]oxatriazacyclotridecin-14(11H)-one], the GI50 in experiment [1] was 462 nM; in experiment [2] it was 82 nM; in experiment [3], 3460 nM; in experiment [4], under 0.2 nM. The results for the IC50 in experiment [5] and in experiment [6] were 86.9 nM and 13.8 nM, respectively.
Regarding `O=C1NC2(CCC2)COc2ncc(F)cc2CN2c3nc4c1cnn4cc3O[C@H]1CCC[C@H]12` [Compound 22, (3a′R,20a′S)-7′-fluoro-1′H,2′H,3′H,3a′H, 5′H,11′H,13′H,14′H,20a′H-spiro[cyclobutane-1,12′-[10,20]dioxa[4,9,13,16,17,18][hexaaza [17,19](metheno)cyclopenta[5,6][1,4]oxazino[3,4-i]pyrazolo[4,3-f]pyrido [3,2-l][1,4,8,10]oxatriazacyclotridecin]-14′-one], the GI50 is 157 nM in experiment [1], 128 nM in experiment [2], 1760 nM in experiment [3] and under 0.2 nM in experiment [4]. For the same compound, the 50% inhibitory concentration (IC50) was 156 nM in experiment [5] and 49.3 nM in experiment [6].

For the origin of these results see US10745416B2, “Macrocyclic compounds for treating disease” (Turning Point Therapeutics, Inc., priority 2017, dated 2020).
